According to ChEMBL document CHEMBL4190183 (Medchemcomm, 2016):
pIC50: −log10 of the molar value. In brackets after ≈: the same amount, converted by molar mass. Activity calls are given as the source filed them. No cut-off for these calls is given here.

How the values were obtained:
DNA ligase 1 [1] = biological target: T1, DNA ligase 1 (Homo sapiens, UniProt P18858); test: Inhibition of human DNA ligase 1 expressed in Escherichia coli BL21(DE3)RP cells assessed as reduction in fluorescently labelled ds nicked DNA substrate ligation at 100 uM after 30 mins by urea gel based imaging method relative to control
T1 sequence (P18858 whole entry): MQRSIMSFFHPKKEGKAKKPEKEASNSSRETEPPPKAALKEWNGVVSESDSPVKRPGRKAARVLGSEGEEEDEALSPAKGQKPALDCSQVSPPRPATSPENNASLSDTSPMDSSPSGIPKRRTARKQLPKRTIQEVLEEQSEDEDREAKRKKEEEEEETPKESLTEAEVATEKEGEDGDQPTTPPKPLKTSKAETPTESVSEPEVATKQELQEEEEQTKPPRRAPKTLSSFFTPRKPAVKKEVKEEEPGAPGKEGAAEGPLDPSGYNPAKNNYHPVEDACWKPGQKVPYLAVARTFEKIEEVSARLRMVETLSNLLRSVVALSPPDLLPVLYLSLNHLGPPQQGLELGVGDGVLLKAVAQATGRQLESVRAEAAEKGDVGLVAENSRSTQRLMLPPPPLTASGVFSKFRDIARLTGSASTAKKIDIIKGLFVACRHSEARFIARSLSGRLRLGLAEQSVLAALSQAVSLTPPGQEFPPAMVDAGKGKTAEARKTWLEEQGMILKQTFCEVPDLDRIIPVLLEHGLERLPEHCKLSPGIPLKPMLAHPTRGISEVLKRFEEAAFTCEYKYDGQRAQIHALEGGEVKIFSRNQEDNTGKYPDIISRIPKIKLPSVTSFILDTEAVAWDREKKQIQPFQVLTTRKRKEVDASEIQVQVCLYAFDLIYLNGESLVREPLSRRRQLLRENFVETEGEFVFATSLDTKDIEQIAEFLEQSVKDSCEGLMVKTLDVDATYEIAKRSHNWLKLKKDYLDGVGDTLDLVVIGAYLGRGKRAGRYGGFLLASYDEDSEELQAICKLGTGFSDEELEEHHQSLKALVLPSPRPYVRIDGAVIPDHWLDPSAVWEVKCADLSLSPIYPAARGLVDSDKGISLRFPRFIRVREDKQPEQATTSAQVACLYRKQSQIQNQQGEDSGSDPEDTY

DNA ligase 1 [2] = biological target: T1, DNA ligase 1; test: Binding affinity to human full length N-terminal His-tagged DNA ligase 1 expressed in Escherichia coli BL21(DE3)RP cells at 10 uM by fluorescence spectroscopic analysis
HepG2 [3] = test: Cytotoxicity against human HepG2 cells assessed as cell death at 10 uM after 48 hrs by MTT assay relative to control; assay type: functional
A549 = test: Cytotoxicity against human A549 cells assessed as cell death at 10 uM after 48 hrs by MTT assay relative to control; assay type: functional
HCT-116 = test: Cytotoxicity against human HCT116 cells assessed as cell death at 10 uM after 48 hrs by MTT assay relative to control; assay type: functional
DLD-1 = test: Cytotoxicity against human DLD1 cells assessed as cell death at 10 uM after 48 hrs by MTT assay relative to control; assay type: functional
MDA-MB-231 = test: Cytotoxicity against human MDA-MB-231 cells assessed as cell death at 10 uM after 48 hrs by MTT assay relative to control; assay type: functional
HEK293 = test: Cytotoxicity against HEK293 cells assessed as cell death at 10 uM after 48 hrs by MTT assay relative to control; assay type: cell-based; conditions: human, hek293, 48 h
DNA ligase 1 [4] = biological target: T1, DNA ligase 1; test: Inhibition of human DNA ligase 1 expressed in Escherichia coli BL21(DE3)RP cells assessed as reduction in nick sealing activity using fluorescently labelled ds nicked DNA as substrate after 30 mins by urea gel based imaging method
DNA ligase 1 [5] = biological target: T1, DNA ligase 1; test: Binding affinity to human full length N-terminal His-tagged DNA ligase 1 expressed in Escherichia coli BL21(DE3)RP cells at 1.25 to 5 uM by CD spectroscopic method
DNA ligase 1 [6] = biological target: T1, DNA ligase 1; test: Binding affinity to human N-terminal His-tagged DNA ligase 1 DBD expressed in Escherichia coli BL21(DE3)RP cells at 1.25 to 5 uM by CD spectroscopic method
DNA ligase 1 [7] = biological target: T1, DNA ligase 1; test: Binding affinity to human N-terminal His-tagged DNA ligase 1 DBD expressed in Escherichia coli BL21(DE3)RP cells at 10 uM by fluorescence spectroscopic analysis
DNA ligase 1 [8] = biological target: T1, DNA ligase 1; test: Binding affinity to human full length N-terminal His-tagged DNA ligase 1 expressed in Escherichia coli BL21(DE3)RP cells assessed as destabilization of enzyme-nicked oligo DNA complex after 2 hrs by electrophoretic mobility shift assay
DNA [9] = test: Induction of linearized Escherichia coli pUC18 DNA intercalation up to 600 uM after 30 mins by agarose gel electrophoresis method; assay type: nucleic-acid assay
DNA [10] = test: Inhibition of EtBr binding to Escherichia coli pUC18 DNA up to 400 uM after 30 mins by fluorescence spectroscopic analysis; assay type: nucleic-acid assay
HepG2 [11] = test: Cytotoxicity against human HepG2 cells assessed as decrease in cell viability after 48 hrs by MTT assay; assay type: functional, cell-based
HepG2 [12] = test: Anticlonogenic activity against human HepG2 cells at >= 10 uM incubated for 48 hrs measured after 10 days by crystal violet staining based microscopy; assay type: functional, cell-based
HepG2 [13] = test: Induction of apoptosis in human HepG2 cells after 48 hrs by Annexin-V/PI staining based flow cytometry; assay type: functional, cell-based
HepG2 [14] = test: Cell cycle arrest in human HepG2 cells assessed as accumulation at G0/G1 phase at 10 uM after 12 hrs by propidium iodide staining based flow cytometry (reference value: 42.7 +/- 1.5%); assay type: functional
HepG2 [15] = test: Cell cycle arrest in human HepG2 cells assessed as accumulation at G0/G1 phase at 20 uM after 12 hrs by propidium iodide staining based flow cytometry (reference value: 42.7 +/- 1.5%); assay type: functional
HepG2 [16] = test: Cell cycle arrest in human HepG2 cells assessed as accumulation at G0/G1 phase at 10 uM after 24 hrs by propidium iodide staining based flow cytometry (reference value: 56.8 +/- 1.16%); assay type: functional
HepG2 [17] = test: Cell cycle arrest in human HepG2 cells assessed as accumulation at G0/G1 phase at 20 uM after 24 hrs by propidium iodide staining based flow cytometry (reference value: 56.8 +/- 1.16%); assay type: functional
HepG2 [18] = test: Induction of DNA damage in human HepG2 cells assessed as increase in gamma-H2AX expression levels at 10 to 20 uM after 48 hrs by Western blot analysis; assay type: functional, cell-based
HepG2 [19] = test: Induction of apoptosis in human HepG2 cells assessed as increase in p53 expression levels at 10 to 20 uM after 48 hrs by Western blot analysis; assay type: functional, cell-based
HepG2 [20] = test: Antiproliferative activity against human HepG2 cells assessed as decrease in PCNA expression level at 10 to 20 uM after 48 hrs by Western blot analysis; assay type: functional, cell-based
HepG2 [21] = test: Antimetastatic activity against human HepG2 cells assessed as wound healing at 10 uM after 12 hrs by microscopic method (reference value: 21%); assay type: functional
HepG2 [22] = test: Antimetastatic activity against human HepG2 cells assessed as wound healing at 10 uM after 18 hrs by microscopic method (reference value: 32%); assay type: functional
HepG2 [23] = test: Antimetastatic activity against human HepG2 cells assessed as wound healing at 20 uM after 12 hrs by microscopic method (reference value: 21%); assay type: functional
HepG2 [24] = test: Antimetastatic activity against human HepG2 cells assessed as wound healing at 20 uM after 18 hrs by microscopic method (reference value: 32%); assay type: functional
HepG2 [25] = test: Synergistic cytotoxicity against human HepG2 cells assessed as induction of cell death at 5 uM after 48 hrs in presence of 0.625 uM doxorubicin by MTT assay; assay type: functional, cell-based
HepG2 [26] = test: Induction of cell death in human HepG2 cells at 5 uM after 48 hrs by MTT assay; assay type: functional, cell-based
[27] = Aqueous solubility of the compound in triple distilled water at 1 to 1000 uM after 2 hrs by nephelometric method; assay type: physicochemical
[28] = Stability of the compound in simulated gastric fluid at 5 uM at pH 1.2 measured up to 60 mins by LC-MS/MS analysis; assay type: ADME; conditions: simulated gi fluid, pH 1.2, 1 h
[29] = Stability of the compound in simulated intestinal fluid at 5 uM at pH 6.8 measured up to 120 mins by LC-MS/MS analysis; assay type: ADME; conditions: simulated gi fluid, pH 6.8, 2 h
[30] = Retention time of the compound by LC-MS/MS analysis; assay type: physicochemical
[31] = Protein binding in hamster plasma at 10 uM at pH 7.4 incubated for 30 mins measured after 10 hrs by LC-MS/MS based equilibrium dialysis method; assay type: ADME, cell-free, Cricetulus griseus; conditions: chinese hamster, read-out: PPB
Mesocricetus auratus [32] = organism: Mesocricetus auratus; test: Half life in hamster liver microsomes at 1 uM by LC-MS/MS analysis; conditions: golden Syrian hamster
Mesocricetus auratus [33] = organism: Mesocricetus auratus; test: Intrinsic clearance in hamster liver microsomes at 1 uM by LC-MS/MS analysis; conditions: golden Syrian hamster
Mesocricetus auratus [34] = organism: Mesocricetus auratus; test: Metabolic stability in hamster liver microsomes assessed as parent compound remaining at 1 uM after 60 mins in presence of NADPH by LC-MS/MS analysis; conditions: golden Syrian hamster
DNA ligase 1 [35] = biological target: T1, DNA ligase 1; test: Residual activity of human DNA ligase 1 expressed in Escherichia coli BL21(DE3)RP cells assessed as DNA ligation at 100 uM using fluorescently labelled ds nicked DNA as substrate after 30 mins by urea gel based imaging method relative to control

## CCOC(=O)C1=C(C)NC(=O)NC1c1cc(/C=N/NC(=O)Nc2cccc(OC)c2)c(O)c(C(C)(C)C)c1 (configuration not stated)
DNA ligase 1 [1]
  inhibition: 82.7%
DNA ligase 1 [2]
  Activity: Active
HepG2 [3]
  Activity: 52.2%
A549
  Activity: 18.1%
HCT-116
  Activity: 18.2%
DLD-1
  Activity: 29.4%
MDA-MB-231
  Activity: 28.4%
HEK293
  Activity: 11.7%
DNA ligase 1 [4]
  pIC50: 4.90
  inhibition: Dose-dependent effect
DNA ligase 1 [5]
  Activity: Active
DNA ligase 1 [6]
  Activity: Active
DNA ligase 1 [7]
  Activity: Active
DNA ligase 1 [8]
  Activity: Dose-dependent effect
DNA [9]
  Activity: inactive
DNA [10]
  inhibition: inactive
HepG2 [11]
  Activity: Dose-dependent effect
HepG2 [11]; HepG2, 48 h
  pIC50: 4.97
HepG2 [12]
  Activity: Active
HepG2 [13]
  Activity: Dose-dependent effect
HepG2 [14]
  Activity: 59.1%
HepG2 [15]
  Activity: 64%
HepG2 [16]
  Activity: 68.1%
HepG2 [17]
  Activity: 84.8%
HepG2 [18]
  Activity: Active
HepG2 [19]
  Activity: Active
HepG2 [20]
  Activity: Active
HepG2 [21]
  Activity: 11.2%
HepG2 [22]
  Activity: 16.4%
HepG2 [23]
  Activity: 7.5%
HepG2 [24]
  Activity: 5.5%
HepG2 [25]
  Activity: Active
HepG2 [26]
  Activity: Active
[27]
  solubility kinetic at 2 h: 30 µM (≈ 15.7 µg/mL)
[28]
  Stability: Stable
[29]
  Stability: Stable
[30]
  Retention_time: 2.98 min
[31]
  fraction unbound at 10 h, 10 µM: 0.0098
Mesocricetus auratus [32]
  half-life at 1 µM: 20.8 min
Mesocricetus auratus [33]
  CLH: 33.29 µL/min/mg
Mesocricetus auratus [34]
  remaining at 1 h, 1 µM: 12.9%
DNA ligase 1 [35]
  ligation: 17.4%
